Data on 3 compounds can be found in ChEMBL document CHEMBL4052759, “Discovery of DS79182026: A potent orally active hepcidin production inhibitor” (Bioorg Med Chem Lett, 2017).

For assay [1], the target named is Mitogen-activated protein kinase 14 (Homo sapiens) (UniProt Q16539). Kind of assay: Inhibition of p38a (unknown origin) at 0.078 uM relative to control.
Assay [2] deals with Casein kinase I isoform delta (Homo sapiens) (UniProt P48730). The assay can be described thus: Inhibition of CK1-delta (unknown origin) at 0.078 uM relative to control.
Casein kinase I isoform delta (Homo sapiens), sequence (P48730 whole entry, looked up, canonical isoform): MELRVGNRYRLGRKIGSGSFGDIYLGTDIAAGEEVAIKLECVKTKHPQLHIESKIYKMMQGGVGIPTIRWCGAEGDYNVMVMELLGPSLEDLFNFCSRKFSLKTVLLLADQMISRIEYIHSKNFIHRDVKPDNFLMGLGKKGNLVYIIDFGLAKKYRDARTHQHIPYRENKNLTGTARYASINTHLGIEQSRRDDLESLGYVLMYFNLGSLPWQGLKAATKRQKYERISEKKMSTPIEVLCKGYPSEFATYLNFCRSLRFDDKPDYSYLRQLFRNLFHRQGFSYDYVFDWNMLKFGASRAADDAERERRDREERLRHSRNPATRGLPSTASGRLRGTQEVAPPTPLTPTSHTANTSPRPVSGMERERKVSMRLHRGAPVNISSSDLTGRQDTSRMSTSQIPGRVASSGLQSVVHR
The target in assay [3] is Tyrosine-protein kinase BTK (Homo sapiens) (UniProt Q06187). The assay can be described thus: Inhibition of BTK (unknown origin) at 0.078 uM relative to control.
For assay [4], the target named is Dual specificity protein kinase CLK3 (Homo sapiens) (UniProt P49761). The assay can be described thus: Inhibition of CLK3 (unknown origin) at 0.49 uM relative to control.
Assay [5] concerns the target Serine/threonine-protein kinase BRSK2 (Homo sapiens) (UniProt Q8IWQ3). Kind of assay: Inhibition of BRSK2 (unknown origin) at 0.49 uM relative to control.
In assay [6] the target is Serine/threonine-protein kinase PAK 5 (Homo sapiens) (UniProt Q9P286). Kind of assay: Inhibition of PAK5 (unknown origin) at 0.49 uM relative to control.
Serine/threonine-protein kinase PAK 5 (Homo sapiens), sequence (Q9P286 whole entry, looked up): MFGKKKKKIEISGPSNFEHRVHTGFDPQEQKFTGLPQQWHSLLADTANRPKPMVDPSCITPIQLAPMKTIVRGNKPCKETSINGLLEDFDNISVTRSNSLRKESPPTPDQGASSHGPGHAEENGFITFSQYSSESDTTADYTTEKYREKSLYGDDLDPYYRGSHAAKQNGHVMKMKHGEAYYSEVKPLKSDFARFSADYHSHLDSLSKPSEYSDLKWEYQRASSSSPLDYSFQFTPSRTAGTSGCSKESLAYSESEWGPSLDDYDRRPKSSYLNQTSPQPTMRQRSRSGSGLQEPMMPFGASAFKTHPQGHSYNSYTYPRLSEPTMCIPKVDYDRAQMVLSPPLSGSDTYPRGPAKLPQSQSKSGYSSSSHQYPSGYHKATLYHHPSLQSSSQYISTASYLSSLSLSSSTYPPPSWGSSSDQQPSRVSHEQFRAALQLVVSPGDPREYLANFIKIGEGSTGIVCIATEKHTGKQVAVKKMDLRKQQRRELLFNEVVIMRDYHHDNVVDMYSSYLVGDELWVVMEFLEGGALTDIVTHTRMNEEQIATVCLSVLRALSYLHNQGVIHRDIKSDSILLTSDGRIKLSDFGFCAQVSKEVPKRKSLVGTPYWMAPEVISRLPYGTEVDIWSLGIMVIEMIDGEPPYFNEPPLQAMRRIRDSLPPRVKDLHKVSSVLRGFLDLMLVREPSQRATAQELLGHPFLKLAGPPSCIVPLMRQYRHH
The target of assay [7] is Protein kinase C theta type (Homo sapiens) (UniProt Q04759). The assay can be described thus: Inhibition of PKC-theta (unknown origin) at 0.49 uM relative to control.
Assay [8] deals with Phosphorylase b kinase gamma catalytic chain, skeletal muscle/heart isoform (Homo sapiens) (UniProt Q16816). The assay can be described thus: Inhibition of PhKg1 (unknown origin) at 0.49 uM relative to control.
Phosphorylase b kinase gamma catalytic chain, skeletal muscle/heart isoform (Homo sapiens), sequence (Q16816 whole entry, looked up, canonical isoform): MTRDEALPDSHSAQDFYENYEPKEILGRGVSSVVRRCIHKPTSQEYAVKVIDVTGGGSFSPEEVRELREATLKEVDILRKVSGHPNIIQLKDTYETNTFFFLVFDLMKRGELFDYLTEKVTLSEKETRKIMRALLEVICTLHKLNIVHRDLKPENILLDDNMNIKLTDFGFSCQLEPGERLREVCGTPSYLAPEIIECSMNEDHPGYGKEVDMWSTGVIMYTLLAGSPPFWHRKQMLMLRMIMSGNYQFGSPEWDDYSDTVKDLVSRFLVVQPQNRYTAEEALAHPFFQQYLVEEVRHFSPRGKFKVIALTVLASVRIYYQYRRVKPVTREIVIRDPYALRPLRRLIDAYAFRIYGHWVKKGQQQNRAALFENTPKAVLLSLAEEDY
The target of assay [9] is Dual specificity tyrosine-phosphorylation-regulated kinase 2 (Homo sapiens) (UniProt Q92630). Kind of assay: Inhibition of DYRK2 (unknown origin) at 0.49 uM relative to control.
Dual specificity tyrosine-phosphorylation-regulated kinase 2 (Homo sapiens), sequence (Q92630 whole entry): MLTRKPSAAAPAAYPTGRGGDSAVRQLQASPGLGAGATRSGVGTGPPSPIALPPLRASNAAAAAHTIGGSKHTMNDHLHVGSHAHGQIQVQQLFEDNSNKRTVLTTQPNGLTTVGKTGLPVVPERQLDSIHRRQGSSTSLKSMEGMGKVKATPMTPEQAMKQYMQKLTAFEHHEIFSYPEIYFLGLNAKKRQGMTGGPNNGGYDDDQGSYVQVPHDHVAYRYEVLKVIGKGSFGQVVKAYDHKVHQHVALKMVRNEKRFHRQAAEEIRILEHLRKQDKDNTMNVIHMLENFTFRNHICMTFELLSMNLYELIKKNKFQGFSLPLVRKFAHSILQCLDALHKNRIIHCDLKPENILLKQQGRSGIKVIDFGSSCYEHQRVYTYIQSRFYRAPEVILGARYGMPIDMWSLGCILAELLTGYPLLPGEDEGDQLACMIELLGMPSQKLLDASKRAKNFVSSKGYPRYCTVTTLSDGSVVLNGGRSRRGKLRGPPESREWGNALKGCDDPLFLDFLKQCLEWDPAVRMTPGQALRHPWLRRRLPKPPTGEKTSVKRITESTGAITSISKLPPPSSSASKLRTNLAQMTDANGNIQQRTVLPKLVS
Assay [10] has as its target cAMP-dependent protein kinase catalytic subunit PRKX (Homo sapiens) (UniProt P51817). Kind of assay: Inhibition of PRKX (unknown origin) at 0.49 uM relative to control.
The target in assay [11] is Mitogen-activated protein kinase 13 (Homo sapiens) (UniProt O15264). The assay can be described thus: Inhibition of p38-delta (unknown origin) at 0.49 uM relative to control.
Mitogen-activated protein kinase 13 (Homo sapiens), sequence (O15264 whole entry): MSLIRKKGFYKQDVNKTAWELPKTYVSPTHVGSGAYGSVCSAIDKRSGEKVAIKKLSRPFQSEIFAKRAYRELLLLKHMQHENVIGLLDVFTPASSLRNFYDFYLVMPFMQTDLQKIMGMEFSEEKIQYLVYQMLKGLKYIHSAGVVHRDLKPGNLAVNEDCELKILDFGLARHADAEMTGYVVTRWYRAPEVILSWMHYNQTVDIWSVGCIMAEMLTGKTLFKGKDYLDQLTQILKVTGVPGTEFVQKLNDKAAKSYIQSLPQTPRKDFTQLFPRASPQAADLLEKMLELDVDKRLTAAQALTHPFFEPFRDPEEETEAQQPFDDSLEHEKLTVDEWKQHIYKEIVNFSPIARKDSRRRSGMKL
Assay [12] concerns the target High affinity nerve growth factor receptor (Homo sapiens) (UniProt P04629). The assay can be described thus: Inhibition of TRKA (unknown origin) at 0.49 uM relative to control.
Assay [13] concerns the target Vascular endothelial growth factor receptor 3 (Homo sapiens) (UniProt P35916). Kind of assay: Inhibition of FLT4 (unknown origin) at 0.49 uM relative to control.
Assay [14] has as its target Serine/threonine-protein kinase PAK 3 (Homo sapiens) (UniProt O75914). The assay can be described thus: Inhibition of PAK3 (unknown origin) at 0.49 uM relative to control.
The target of assay [15] is Calcium/calmodulin-dependent protein kinase type II subunit beta (Homo sapiens) (UniProt Q13554). Kind of assay: Inhibition of CaMK2-beta (unknown origin) at 0.49 uM relative to control.
Calcium/calmodulin-dependent protein kinase type II subunit beta (Homo sapiens), sequence (Q13554 whole entry): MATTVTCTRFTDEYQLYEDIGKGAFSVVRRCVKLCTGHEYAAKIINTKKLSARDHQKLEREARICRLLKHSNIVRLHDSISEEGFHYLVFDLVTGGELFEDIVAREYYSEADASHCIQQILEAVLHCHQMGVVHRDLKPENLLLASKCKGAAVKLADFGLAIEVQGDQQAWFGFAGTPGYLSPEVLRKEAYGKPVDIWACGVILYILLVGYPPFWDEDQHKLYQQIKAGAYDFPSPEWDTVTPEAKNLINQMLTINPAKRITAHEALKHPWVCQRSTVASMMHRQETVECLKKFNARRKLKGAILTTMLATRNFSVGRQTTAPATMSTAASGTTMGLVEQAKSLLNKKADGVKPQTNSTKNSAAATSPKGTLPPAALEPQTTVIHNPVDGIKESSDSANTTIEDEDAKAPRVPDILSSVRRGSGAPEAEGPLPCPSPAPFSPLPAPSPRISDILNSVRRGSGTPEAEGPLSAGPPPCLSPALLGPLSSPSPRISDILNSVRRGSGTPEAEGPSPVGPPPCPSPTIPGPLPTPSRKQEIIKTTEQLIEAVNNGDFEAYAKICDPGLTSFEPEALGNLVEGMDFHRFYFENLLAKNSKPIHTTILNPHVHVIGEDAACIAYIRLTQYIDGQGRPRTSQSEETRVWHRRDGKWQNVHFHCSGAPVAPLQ
Assay [16] has as its target T1, Serine/threonine-protein kinase Chk1 (Homo sapiens) (UniProt O14757).
T1 sequence (whole entry): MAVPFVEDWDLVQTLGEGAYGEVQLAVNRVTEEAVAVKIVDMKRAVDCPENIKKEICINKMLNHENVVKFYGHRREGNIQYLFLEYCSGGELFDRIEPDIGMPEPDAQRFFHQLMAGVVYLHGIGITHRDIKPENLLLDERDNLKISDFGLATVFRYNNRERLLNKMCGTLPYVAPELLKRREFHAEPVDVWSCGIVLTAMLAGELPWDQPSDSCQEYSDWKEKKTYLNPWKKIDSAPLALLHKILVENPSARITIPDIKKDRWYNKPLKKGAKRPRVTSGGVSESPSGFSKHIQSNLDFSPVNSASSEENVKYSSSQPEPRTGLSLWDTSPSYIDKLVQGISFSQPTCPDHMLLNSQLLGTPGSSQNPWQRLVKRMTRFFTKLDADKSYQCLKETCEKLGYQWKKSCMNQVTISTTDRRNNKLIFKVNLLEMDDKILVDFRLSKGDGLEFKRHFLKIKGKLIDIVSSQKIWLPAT
The assay can be described thus: Inhibition of CHK1 (unknown origin) at 0.45 uM relative to control.

In assay [17] the target is Dual specificity tyrosine-phosphorylation-regulated kinase 2 (Homo sapiens) (UniProt Q92630). The assay can be described thus: Inhibition of DYRK2 (unknown origin) at 0.45 uM relative to control.
For assay [18], the target named is NT-3 growth factor receptor (Homo sapiens) (UniProt Q16288). Kind of assay: Inhibition of TRKC (unknown origin) at 0.45 uM relative to control.
Assay [19] deals with T2, cGMP-dependent protein kinase 1 (Homo sapiens) (UniProt Q13976).
T2 sequence (whole entry): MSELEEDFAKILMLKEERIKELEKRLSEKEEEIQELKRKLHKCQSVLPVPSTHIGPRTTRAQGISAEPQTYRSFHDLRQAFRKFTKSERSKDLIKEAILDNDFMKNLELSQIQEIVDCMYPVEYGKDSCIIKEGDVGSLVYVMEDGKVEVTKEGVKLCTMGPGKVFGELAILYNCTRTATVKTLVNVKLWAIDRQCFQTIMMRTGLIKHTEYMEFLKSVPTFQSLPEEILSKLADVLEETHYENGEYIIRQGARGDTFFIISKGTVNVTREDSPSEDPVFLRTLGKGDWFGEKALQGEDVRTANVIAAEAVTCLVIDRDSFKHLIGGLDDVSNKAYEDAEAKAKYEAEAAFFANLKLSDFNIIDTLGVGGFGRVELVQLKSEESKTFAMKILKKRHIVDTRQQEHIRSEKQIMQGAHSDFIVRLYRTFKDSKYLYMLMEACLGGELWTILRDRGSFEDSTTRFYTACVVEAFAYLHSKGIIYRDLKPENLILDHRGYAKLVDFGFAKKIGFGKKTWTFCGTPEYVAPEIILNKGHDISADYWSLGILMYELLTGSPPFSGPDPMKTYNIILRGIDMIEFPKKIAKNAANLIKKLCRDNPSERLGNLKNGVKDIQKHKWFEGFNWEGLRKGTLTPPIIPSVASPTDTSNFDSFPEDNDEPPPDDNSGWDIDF
The assay can be described thus: Inhibition of PKG-alpha (unknown origin) at 0.45 uM relative to control.

Assay [20] concerns the target Protein kinase C delta type (Homo sapiens) (UniProt Q05655). Kind of assay: Inhibition of PKC-delta (unknown origin) at 0.45 uM relative to control.
Assay [21] addresses Macrophage-stimulating protein receptor (Homo sapiens) (UniProt Q04912). Kind of assay: Inhibition of MST1R (unknown origin) at 0.45 uM relative to control.
Assay [22] has as its target Tyrosine-protein kinase JAK2 (Homo sapiens) (UniProt O60674). Kind of assay: Inhibition of JAK2 (unknown origin) at 0.45 uM relative to control.
For assay [23], the target named is Proto-oncogene tyrosine-protein kinase receptor Ret (Homo sapiens) (UniProt P07949). Kind of assay: Inhibition of RET (unknown origin) at 0.45 uM relative to control.
For assay [24], the target named is Calcium/calmodulin-dependent protein kinase type II subunit beta (Homo sapiens) (UniProt Q13554). The assay can be described thus: Inhibition of CAMK2 (unknown origin) at 0.45 uM relative to control.
In assay [25] the target is Receptor tyrosine-protein kinase erbB-4 (Homo sapiens) (UniProt Q15303). The assay can be described thus: Inhibition of HER4 (unknown origin) at 0.45 uM relative to control.
Assay [26] concerns the target cAMP-dependent protein kinase catalytic subunit PRKX (Homo sapiens) (UniProt P51817). Kind of assay: Inhibition of PRKX (unknown origin) at 0.45 uM relative to control.

cAMP-dependent protein kinase catalytic subunit PRKX (Homo sapiens), sequence (P51817 whole entry): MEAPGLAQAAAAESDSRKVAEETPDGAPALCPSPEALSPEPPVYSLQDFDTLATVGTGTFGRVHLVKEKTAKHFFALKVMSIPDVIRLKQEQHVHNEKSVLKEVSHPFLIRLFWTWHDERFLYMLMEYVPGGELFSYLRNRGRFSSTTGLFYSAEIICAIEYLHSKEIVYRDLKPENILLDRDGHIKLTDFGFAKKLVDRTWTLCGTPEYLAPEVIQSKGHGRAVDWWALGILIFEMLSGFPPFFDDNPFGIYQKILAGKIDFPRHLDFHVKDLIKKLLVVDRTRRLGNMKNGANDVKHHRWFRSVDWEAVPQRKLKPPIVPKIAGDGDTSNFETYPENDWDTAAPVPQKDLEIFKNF
Tyrosine-protein kinase JAK2 (Homo sapiens), sequence (O60674 whole entry): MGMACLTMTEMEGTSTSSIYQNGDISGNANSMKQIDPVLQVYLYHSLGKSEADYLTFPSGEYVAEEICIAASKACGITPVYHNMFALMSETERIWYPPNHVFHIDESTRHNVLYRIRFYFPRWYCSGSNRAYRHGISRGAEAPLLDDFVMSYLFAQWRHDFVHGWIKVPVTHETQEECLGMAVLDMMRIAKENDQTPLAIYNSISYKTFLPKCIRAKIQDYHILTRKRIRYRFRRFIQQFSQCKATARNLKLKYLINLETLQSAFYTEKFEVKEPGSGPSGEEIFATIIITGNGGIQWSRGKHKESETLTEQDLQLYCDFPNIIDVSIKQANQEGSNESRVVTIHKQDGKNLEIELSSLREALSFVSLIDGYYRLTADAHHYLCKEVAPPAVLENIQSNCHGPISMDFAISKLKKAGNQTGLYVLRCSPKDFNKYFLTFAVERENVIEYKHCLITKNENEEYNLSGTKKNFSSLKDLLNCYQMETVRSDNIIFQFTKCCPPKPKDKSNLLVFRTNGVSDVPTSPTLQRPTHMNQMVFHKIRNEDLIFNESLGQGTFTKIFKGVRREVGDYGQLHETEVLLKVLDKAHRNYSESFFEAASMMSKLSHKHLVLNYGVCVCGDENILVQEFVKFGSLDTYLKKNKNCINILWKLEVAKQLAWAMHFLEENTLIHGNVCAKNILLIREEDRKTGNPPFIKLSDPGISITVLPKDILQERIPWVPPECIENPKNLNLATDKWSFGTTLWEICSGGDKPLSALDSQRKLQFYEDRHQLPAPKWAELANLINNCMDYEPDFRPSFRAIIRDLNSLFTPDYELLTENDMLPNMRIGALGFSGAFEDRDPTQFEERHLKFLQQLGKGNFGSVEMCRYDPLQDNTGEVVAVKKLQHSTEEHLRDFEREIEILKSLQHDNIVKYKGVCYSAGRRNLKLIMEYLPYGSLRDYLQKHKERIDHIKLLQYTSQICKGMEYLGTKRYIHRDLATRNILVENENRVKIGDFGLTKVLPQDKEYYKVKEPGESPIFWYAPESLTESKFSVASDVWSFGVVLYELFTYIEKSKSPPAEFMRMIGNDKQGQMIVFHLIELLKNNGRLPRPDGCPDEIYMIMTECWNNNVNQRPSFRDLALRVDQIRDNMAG
Mitogen-activated protein kinase 14 (Homo sapiens), sequence (Q16539 whole entry, canonical isoform): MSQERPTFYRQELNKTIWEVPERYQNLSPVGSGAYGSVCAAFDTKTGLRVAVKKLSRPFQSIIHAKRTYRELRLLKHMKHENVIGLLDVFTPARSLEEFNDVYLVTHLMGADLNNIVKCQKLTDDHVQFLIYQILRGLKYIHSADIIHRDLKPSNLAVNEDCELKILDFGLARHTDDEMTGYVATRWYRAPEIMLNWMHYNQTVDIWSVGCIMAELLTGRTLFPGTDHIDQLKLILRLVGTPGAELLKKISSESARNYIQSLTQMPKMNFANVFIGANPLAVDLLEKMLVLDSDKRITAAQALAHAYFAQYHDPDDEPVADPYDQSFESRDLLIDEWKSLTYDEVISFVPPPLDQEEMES

Take `COC(=O)Nc1noc2cc(-c3c(-c4ccccn4)n[nH]c3C)ccc12`: the inhibition – broadly, the change of the read-out against control, counted positive when it falls – in assay [1] was 5.7%; in assay [2], 10.7%; in [3] it was 7.7%.
For `Cc1[nH]nc(C2CC2)c1-c1ccc2c(NC(=O)C3CC3)noc2c1`, the inhibition was 0.7% in [4]; -2.3% in assay [5]; -1% in [6]; 6% in [7]; 2.3% in assay [8]; 3.3% in assay [9]. The inhibition in assay [10] is -1.7%; in [11], 4.3%; in [12] it was 3.7%; in assay [13], -2.7%; in [14], -4.3%; in [15], 2.3%.
As to `Cc1n[nH]c(C)c1-c1ccc2c(NC(=O)c3ccc(N4CCN(C)CC4)cc3)n[nH]c2c1`, the inhibition in assay [16] is 2.3%; in assay [17], 8%; in [18], 95%; in [19], -1.7%; in assay [20], 5.3%; in assay [21], -1%. Moreover, the inhibition in [22] was 26%; in assay [23] it was 59%; in assay [24] it was 19.7%; in assay [25], -7%; in assay [26] it was 0.3%.
